Test results: the RepoRT retention time repository (doi:10.1016/j.chroma.2019.01.023)

What was measured:
Conditions in all cases: stereoisomer not certain
[1] = HILIC, Merck SeQuant ZIC-pHILIC, 150 × 2.1 mm, 5 µm, 40 °C, 0.3 mL/min, estimated dead time 1.1 min; A: acetonitrile; B: water + 2.8 mM ammonium formate, pH 9; gradient (min/%B) 0/5 1/5 10/51 13/51 13.1/5 20/5
[2] = RP, Phenomenex Kinetex C18, 150 × 2.1 mm, 1.7 µm, 30 °C, 0.3 mL/min, estimated dead time 1.1 min; A: water + 0.1% formic acid, pH 3; B: acetonitrile + 0.1% formic acid, pH 3; gradient (min/%B) 0/2 14/100 17/100 17.1/2 25/2
[3] = as above; remark: listed apart in the source
[4] = HILIC, Waters ACQUITY UPLC BEH Amide, 150 × 2.1 mm, 1.7 µm, 40 °C, 0.5 mL/min, estimated dead time 0.66 min; A: 5% water + 95% acetonitrile; B: 70% water + 30% acetonitrile + 10 mM ammonium formate, pH 6.5; gradient (min/%B) 0/0 2/0 20/70 23/70 24/0 31/0

Compound | LC retention time [1] [min] | LC retention time [2] [min] | LC retention time [3] [min] | LC retention time [4] [min]
CSCC[C@H](NC=O)C(=O)O [N-FORMYL-L-METHIONINE] | 5.35 | 3.85 | 3.93 | 2.24
O=C(O)CNC(=O)c1ccccc1 [HIPPURATE] | 5.32 | 4.62 | 4.78 | 2.66
O=c1[nH]c(=O)c2ncn(C3OC(CO)C(O)C3O)c2[nH]1 (stereo not given) [XANTHOSINE] | 7.99 | 3.01 | 3.11 | 7.17
CC(C)(CO)C(O)C(=O)NCCC(=O)O (stereo not given) [PANTOTHENATE] | 6.03 | 3.4 | 3.49 | 3.31
CC12CCC(=O)C=C1CCC1C2CCC2(C)C1CCC2(O)C(=O)CO (stereo not given) [CORTEXOLONE] | – | 8.32 | 8.31 | 0.83
NC(=O)c1ccccc1O [SALICYLAMIDE] | 1.46 | 5.26 | 5.42 | 0.81
O=c1[nH]cnc2nc[nH]c12 [HYPOXANTHINE] | 6.25 | 1.62 | 1.76 | 3.88
O=C(O)CCCCCCCC(=O)O [AZELATE] | 3.51 | 6.14 | 6.26 | 1.24
O=C(O)Cc1c[nH]c2ccc(O)cc12 [5-HYDROXYINDOLEACETATE] | 5.86 | 4.49 | 4.69 | 1.37
Cc1ncc(CO)c(CO)c1O [PYRIDOXINE] | 3.69 | 1.65 | 1.81 | 3.29
CSc1ncnc2nc[nH]c12 [THIOPURINE S-METHYLETHER] | 2.09 | 4.4 | 4.64 | 1.08
Cc1cc2nc3c(=O)[nH]c(=O)nc-3n(CC(O)C(O)C(O)CO)c2cc1C (stereo not given) [RIBOFLAVIN] | 5.9 | 4.65 | 4.85 | 6.01
O=c1[nH]cnc2c1ncn2C1OC(CO)C(O)C1O (stereo not given) [INOSINE] | 6.86 | 2.64 | 2.79 | 5.52
CC12CCC(=O)C=C1CCC1C2C(O)CC2(C)C1CCC2(O)C(=O)CO (stereo not given) [CORTISOL] | 1.43 | 7.09 | 7.18 | 1
O=c1ccn(C2OC(CO)C(O)C2O)c(=O)[nH]1 (stereo not given) [URIDINE] | 6.2 | 1.88 | 2.06 | 3.65
NC(=O)[C@@H](N)Cc1c[nH]c2ccccc12 [L-TRYPTOPHANAMIDE] | 7.51 | 3.7 | 3.82 | 5.86
OCCc1c[nH]c2ccccc12 [INDOLE-3-ETHANOL] | 3.41 | 5.55 | 6.56 | 0.83
O=C(O)CCCCCCCCC(=O)O [SEBACATE] | 2.41 | 6.91 | 7 | 1.12
CC12CCC(=O)C=C1CCC1C2C(O)CC2(C)C(C(=O)CO)CCC12 (stereo not given) [CORTICOSTERONE] | – | 8.03 | 8.14 | 0.85
O=C(O)c1ccc([O-])c(O)c1 [3,4-DIHYDROXYBENZOATE] | 8.04 | 3.77 | 3.88 | –
CC(CCC(=O)O)C1CCC2C3C(O)CC4CC(O)CCC4(C)C3CCC12C (stereo not given) [CHENODEOXYCHOLATE] | – | 10.7 | 10.8 | 1
CC12CCC(=O)C=C1CCC1C2C(=O)CC2(C)C1CCC2(O)C(=O)CO (stereo not given) [CORTISONE] | – | 7.16 | 7.28 | 0.86
CC(CCC(=O)NCCS(=O)(=O)O)C1CCC2C3CCC4CC(O)CCC4(C)C3CCC12C (stereo not given) [LITHOCHOLYLTAURINE] | – | 9.54 | 9.43 | 1.01
CC1NCCc2cc(O)c(O)cc21 (stereo not given) [SALSOLINOL] | – | 1.95 | 2.16 | 8.1
O=C(O)CCCCCC(=O)O [6-CARBOXYHEXANOATE] | 6.74 | 4.56 | 4.73 | –
CC(=O)N1CCCC1C(=O)O (stereo not given) [N-ACETYLPROLINE] | 6.05 | 3.39 | 3.52 | –
